Test results published in ChEMBL document CHEMBL1201862, “PubChem BioAssay data set” (2004).
The source made the active and inactive calls.

Legend:
[1] = biological target: 5-hydroxytryptamine receptor 2A (Mus musculus, UniProt P35363); assay type: functional, cell-based;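 further: CHO-K1 cells with tagged receptor and beta-arrestin; agonist potency measured as compound-induced activation of the receptor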
[2] = biological target: Mu-type opioid receptor (Homo sapiens, UniProt P35372); assay type: functional, cell-based;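 further: U2OS cells with beta-arrestin recruitment to OPRM1 by beta-gal complementation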
Chain of Mu-type opioid receptor (P35372 whole entry, the tested form may be a part): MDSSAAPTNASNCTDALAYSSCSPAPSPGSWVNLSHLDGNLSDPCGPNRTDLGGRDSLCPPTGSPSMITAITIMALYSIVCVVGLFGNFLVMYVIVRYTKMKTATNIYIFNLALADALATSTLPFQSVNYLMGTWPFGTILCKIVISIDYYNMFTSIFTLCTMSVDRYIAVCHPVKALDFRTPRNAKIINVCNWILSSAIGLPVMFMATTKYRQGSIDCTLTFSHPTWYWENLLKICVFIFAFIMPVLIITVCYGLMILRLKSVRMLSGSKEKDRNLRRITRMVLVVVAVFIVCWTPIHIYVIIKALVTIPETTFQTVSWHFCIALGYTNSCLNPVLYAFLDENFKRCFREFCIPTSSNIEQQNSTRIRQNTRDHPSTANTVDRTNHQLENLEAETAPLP

[3] = biological target: NACHT, LRR and PYD domains-containing protein 1 (Homo sapiens, UniProt Q9C000); test: NALP1 inhibitors in yeast, dose response, luminescent (AID 488860); assay type: functional
Chain of NACHT, LRR and PYD domains-containing protein 1 (Q9C000 1-1212 limits assumed): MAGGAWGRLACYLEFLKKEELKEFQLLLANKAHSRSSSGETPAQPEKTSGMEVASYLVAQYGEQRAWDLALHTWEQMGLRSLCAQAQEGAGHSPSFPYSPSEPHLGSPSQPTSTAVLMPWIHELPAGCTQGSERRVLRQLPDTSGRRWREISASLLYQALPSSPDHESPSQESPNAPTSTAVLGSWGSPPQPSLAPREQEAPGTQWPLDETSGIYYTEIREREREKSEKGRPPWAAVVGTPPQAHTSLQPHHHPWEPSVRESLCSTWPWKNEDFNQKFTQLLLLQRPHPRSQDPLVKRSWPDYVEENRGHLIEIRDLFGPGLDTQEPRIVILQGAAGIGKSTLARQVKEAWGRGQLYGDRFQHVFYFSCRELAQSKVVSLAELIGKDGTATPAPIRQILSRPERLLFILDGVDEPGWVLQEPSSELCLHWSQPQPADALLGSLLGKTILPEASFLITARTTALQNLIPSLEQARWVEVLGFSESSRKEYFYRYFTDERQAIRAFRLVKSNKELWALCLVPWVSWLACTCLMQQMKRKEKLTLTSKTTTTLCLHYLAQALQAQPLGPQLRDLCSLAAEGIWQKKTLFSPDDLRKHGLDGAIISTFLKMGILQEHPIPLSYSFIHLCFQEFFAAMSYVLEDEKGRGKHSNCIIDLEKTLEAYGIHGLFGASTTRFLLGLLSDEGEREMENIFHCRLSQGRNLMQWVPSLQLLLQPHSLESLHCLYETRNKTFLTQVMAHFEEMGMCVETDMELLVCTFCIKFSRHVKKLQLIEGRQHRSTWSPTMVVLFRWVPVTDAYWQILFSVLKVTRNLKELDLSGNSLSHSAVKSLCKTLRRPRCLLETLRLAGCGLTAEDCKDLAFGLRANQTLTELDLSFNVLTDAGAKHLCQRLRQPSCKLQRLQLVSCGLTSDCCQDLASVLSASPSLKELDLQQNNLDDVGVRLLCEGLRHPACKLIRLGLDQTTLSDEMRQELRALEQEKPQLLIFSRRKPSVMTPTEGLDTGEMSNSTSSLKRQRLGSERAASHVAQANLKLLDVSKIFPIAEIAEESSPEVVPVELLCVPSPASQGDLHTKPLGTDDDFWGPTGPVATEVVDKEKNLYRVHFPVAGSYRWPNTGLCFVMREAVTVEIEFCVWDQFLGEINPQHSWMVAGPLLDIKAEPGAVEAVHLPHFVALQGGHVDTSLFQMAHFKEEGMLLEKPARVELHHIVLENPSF
Chain of NACHT, LRR and PYD domains-containing protein 1 (Q9C000 1213-1473 limits assumed): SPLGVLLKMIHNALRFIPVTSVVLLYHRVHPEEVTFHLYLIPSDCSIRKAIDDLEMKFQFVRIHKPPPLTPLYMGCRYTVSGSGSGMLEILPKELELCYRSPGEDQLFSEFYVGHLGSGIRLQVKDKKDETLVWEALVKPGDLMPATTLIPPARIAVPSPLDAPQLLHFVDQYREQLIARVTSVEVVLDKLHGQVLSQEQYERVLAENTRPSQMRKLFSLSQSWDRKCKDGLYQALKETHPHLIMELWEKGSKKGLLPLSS

[4] = viability of uninfected HEp-2 cells – cell-based, HTS, cytotoxicity control for RSV inhibitor project, dose response (AID 2410); assay type: functional; conditions: human respiratory syncytial virus
[5] = test system: Saccharomyces cerevisiae; test: S. cerevisiae Caspase-1/ASC signal blockers IC50, NALP1 inhibitor project selectivity test (AID 488863); assay type: functional, organism-based
[6] = biological target: T1, SUMO-activating enzyme (Homo sapiens, UniProt Q9UBT2); test: blockers of SAE1/SAE2–UBC9 SUMO transfer – biochemical, HTRF, uHTS, primary screen (AID 2006); assay type: protein-complex assay
T1 sequence (Q9UBE0 whole entry): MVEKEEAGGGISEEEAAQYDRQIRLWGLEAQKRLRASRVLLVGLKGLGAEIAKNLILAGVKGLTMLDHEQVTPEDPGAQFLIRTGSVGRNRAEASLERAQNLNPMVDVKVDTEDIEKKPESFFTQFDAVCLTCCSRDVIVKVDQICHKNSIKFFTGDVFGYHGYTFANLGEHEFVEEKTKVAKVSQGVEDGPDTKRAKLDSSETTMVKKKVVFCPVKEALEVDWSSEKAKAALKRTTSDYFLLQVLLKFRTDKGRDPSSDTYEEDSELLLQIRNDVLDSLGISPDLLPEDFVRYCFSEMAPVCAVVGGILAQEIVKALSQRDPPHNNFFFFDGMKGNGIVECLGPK
T1 sequence (Q9UBT2 whole entry): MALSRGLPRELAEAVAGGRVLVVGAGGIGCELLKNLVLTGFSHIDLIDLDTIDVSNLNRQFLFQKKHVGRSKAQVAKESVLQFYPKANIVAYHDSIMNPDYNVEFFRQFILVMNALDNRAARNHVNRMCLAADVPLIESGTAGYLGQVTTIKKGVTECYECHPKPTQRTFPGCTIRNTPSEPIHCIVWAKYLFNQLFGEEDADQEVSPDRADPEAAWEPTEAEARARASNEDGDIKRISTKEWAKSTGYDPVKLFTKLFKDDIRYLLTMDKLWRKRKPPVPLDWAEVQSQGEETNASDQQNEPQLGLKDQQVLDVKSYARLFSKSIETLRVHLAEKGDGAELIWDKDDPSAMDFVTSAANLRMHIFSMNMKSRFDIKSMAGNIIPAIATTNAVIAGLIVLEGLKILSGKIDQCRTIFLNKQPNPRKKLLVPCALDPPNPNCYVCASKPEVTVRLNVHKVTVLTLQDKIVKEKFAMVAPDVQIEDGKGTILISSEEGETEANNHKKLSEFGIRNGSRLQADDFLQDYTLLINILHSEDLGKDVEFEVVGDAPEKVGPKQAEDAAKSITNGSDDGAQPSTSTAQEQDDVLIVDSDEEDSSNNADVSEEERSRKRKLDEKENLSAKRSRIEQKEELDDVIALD

[7] = biological target: T1, SUMO-activating enzyme; test: blockers of UBC9-mediated SUMO conjugation – biochemical, AlphaScreen, SUMOylation inhibitor project, confirmation (AID 2018); assay type: functional
[8] = biological target: T2, Short transient receptor potential channel 4 (Mus musculus, UniProt Q9QUQ5); test: potentiation of DAMGO-evoked TRPC4 calcium signal – cell-based, HEK293 TRPC4/mu-opioid, Fluo-4 calcium, EC20 DAMGO, dose response (AID 434941); assay type: functional
T2 sequence (Q9QUQ5 whole entry): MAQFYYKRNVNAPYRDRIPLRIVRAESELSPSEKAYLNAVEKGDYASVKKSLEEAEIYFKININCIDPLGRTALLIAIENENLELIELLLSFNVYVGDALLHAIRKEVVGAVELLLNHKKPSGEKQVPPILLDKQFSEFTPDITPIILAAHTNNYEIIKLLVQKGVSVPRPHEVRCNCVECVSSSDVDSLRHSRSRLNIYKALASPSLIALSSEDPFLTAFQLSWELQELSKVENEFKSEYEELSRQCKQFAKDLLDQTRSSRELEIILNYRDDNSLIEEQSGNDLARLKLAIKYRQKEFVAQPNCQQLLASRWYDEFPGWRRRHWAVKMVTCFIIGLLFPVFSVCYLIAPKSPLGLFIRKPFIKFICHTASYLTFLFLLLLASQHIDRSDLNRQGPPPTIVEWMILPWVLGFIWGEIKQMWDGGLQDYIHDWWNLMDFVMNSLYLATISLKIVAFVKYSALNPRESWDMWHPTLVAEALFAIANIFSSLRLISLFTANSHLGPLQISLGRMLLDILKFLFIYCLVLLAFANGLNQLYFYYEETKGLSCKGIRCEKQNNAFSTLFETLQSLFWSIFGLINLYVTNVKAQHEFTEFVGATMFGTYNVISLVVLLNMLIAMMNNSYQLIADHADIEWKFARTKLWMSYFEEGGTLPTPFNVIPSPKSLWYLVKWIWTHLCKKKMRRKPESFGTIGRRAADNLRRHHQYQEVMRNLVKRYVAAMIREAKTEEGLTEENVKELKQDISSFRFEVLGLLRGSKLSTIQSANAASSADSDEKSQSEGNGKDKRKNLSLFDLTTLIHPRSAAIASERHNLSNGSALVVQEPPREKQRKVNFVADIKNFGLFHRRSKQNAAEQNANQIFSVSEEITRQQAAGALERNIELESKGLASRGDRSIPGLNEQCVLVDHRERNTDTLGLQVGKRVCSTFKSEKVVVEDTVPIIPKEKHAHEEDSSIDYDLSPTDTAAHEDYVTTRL

[9] = biological target: Cystic fibrosis transmembrane conductance regulator/Golgi-associated PDZ and coiled-coil motif-containing protein (Homo sapiens, UniProt P13569+Q9HD26); test: potency against CAL PDZ-peptide interaction – biochemical, fluorescence polarization, Cerulean-tagged CAL PDZ, cherry-picks, dose response (AID 504773)
Chain of Cystic fibrosis transmembrane conductance regulator/Golgi-associated PDZ and coiled-coil motif-containing protein (P13569 whole entry, other chains not shown): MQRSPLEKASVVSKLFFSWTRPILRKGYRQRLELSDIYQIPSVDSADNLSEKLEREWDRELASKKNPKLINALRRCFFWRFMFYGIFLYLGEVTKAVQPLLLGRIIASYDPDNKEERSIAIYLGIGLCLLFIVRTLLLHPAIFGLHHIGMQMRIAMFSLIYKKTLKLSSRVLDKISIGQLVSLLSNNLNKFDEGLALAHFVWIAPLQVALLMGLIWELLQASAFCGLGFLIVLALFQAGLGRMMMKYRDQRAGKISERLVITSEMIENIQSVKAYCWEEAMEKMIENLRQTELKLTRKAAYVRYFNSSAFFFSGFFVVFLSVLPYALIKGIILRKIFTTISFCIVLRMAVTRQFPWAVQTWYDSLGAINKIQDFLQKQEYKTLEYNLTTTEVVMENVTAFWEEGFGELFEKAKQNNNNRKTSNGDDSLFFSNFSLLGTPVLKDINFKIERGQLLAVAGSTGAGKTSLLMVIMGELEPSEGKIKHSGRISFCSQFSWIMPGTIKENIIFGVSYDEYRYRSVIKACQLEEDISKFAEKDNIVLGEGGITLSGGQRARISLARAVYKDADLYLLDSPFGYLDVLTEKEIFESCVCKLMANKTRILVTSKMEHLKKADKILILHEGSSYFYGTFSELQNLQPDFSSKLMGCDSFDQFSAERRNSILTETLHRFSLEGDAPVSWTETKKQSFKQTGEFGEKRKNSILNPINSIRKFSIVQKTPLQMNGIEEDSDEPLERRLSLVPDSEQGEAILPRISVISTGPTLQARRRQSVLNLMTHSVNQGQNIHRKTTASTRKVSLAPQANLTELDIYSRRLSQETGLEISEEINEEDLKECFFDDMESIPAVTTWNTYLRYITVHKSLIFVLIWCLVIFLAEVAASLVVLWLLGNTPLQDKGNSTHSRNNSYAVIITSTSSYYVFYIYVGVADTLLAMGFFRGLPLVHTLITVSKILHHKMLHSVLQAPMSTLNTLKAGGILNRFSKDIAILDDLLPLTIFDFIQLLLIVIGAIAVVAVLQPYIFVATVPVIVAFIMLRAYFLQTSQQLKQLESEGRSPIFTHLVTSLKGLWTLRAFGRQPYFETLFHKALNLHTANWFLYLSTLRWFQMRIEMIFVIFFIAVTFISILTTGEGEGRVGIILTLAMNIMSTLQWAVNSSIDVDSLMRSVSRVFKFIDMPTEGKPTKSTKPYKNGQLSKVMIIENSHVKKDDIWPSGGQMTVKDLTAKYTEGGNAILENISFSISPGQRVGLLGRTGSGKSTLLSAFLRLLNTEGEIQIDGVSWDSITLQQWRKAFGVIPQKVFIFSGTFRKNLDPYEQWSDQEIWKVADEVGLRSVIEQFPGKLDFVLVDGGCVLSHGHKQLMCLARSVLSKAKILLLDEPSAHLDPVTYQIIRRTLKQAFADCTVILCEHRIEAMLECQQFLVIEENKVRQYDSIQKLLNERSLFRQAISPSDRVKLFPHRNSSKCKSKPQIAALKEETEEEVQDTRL

[10] = biological target: T3, Small ubiquitin-related modifier 1 (Homo sapiens, UniProt P63165); test: SUMO1 protein interaction blockers, potency – biochemical, fluorescence polarization, uHTS hits, dose response (AID 624382); assay type: functional; conditions: read-out: IC50_Mean
T3 sequence (P63165 whole entry): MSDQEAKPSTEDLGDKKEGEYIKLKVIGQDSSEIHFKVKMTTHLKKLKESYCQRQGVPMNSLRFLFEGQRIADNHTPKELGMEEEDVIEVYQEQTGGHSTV

[11] = A549 cell cytotoxicity, dose response, cytotoxicity control, plate reader, cherry-pick, antagonist series (AID 743412); assay type: functional, cell-based
[12] = biological target: T4, Bcl-2-related protein A1 (Mus musculus, UniProt Q07440); assay type: functional;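 further: confirmatory dose–response counterscreen on Bfl-1, used to check hits from a UBC13 polyubiquitin inhibitor campaign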
T4 sequence (Q07440 whole entry): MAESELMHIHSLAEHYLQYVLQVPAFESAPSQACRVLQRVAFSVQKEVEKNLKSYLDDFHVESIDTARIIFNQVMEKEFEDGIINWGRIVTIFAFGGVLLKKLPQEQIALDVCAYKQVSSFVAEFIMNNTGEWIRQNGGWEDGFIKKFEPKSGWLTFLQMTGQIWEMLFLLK

[13] = biological target: T5, Ubiquitin-conjugating enzyme E2 N (Homo sapiens, UniProt P61088); assay type: functional
T5 sequence (P61088 whole entry): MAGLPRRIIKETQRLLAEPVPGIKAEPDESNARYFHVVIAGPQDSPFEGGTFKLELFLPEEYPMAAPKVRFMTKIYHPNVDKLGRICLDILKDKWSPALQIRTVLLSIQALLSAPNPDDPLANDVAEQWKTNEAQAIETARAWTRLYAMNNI

[14] = Luminescence Cell-Based Dose Response HTS to Identify Inhibitors of 5'UTR Stem-Loop Driven Prion Protein mRNA Translation in H4 Neuroglioblastoma Cells. [Related pubchem assays: 1827 (Project Summary), 1813 (Primary HTS)]; assay type: functional
[15] = biological target: T6, Type-1 angiotensin II receptor (Homo sapiens, UniProt P30556); test: agonist activity at AGTR1 – cell-based, uHTS hits, selectivity assay for APJ receptor agonist project, dose response (AID 488865); assay type: functional;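 further: beta-arrestin recruitment to AT1 measured by enzyme fragment complementation luminescence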
T6 sequence (P30556 whole entry): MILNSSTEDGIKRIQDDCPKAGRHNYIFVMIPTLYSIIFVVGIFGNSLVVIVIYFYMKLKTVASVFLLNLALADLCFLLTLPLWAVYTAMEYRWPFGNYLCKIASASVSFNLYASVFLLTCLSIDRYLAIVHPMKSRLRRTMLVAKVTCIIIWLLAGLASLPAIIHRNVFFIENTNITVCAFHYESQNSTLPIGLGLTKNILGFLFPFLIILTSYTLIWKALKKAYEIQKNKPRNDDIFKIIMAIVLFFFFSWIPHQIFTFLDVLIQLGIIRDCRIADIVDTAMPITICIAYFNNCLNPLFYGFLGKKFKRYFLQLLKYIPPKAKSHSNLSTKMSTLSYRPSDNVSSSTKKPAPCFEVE

[16] = HEK-293T viability loss after treatment – luminescence, T-cell screen hits, cytotoxicity control for TCR NF-kB inhibitor project, dose response (AID 489026); assay type: functional, cell-based;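 further: cells exposed to compound about 14 hours before the viability readout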
[17] = viability loss in HEK293 cells – cell-based, plate reader, cherry-picked samples, cytotoxicity control, dose response (AID 743446); assay type: functional
[18] = viability loss in HeLa cells – cytotoxicity control for MgcRacGAP inhibitor project, dose response (AID 624300); assay type: functional
[19] = NIH3T3 cell viability loss – ATP luminescence, mouse fibroblasts, counter-screen, dose response (AID 2010); assay type: functional, cell-based;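 further: cells exposed to compound for about 90 hours before reading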
[20] = biological target: T5, Ubiquitin-conjugating enzyme E2 N; assay type: functional; remark: listed apart in the source
[21] = toxicity toward HepG2 liver cells – cell-based, plate reader, cherry-pick, antagonist series, cytotoxicity control, dose response (AID 743416); assay type: functional
[22] = test system: HEK293; test: EBV LMP1 TES2 canonical NF-kB signalling blockers – cell-based, HEK293, luciferase, cherry-pick, dose response (AID 588343); assay type: functional; conditions: Homo sapiens
[23] = blockade of melanocortin 4 receptor signaling – cell-based, plate reader, cherry pick, counter-screen for LGR2 antagonist project, dose response (AID 743444); assay type: functional;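 further: transfected HEK 293 cells stimulated with alpha-MSH peptide; potency of inhibitors of the alpha-MSH evoked signal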
[24] = Trypanosoma cruzi growth suppression in host cells – NIH3T3 host cells, beta-gal luminescence, confirmation (AID 2044); assay type: functional, cell-based;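 further: intracellular parasites grown in NIH/3T3 mouse fibroblasts as host cells; luminescent beta-galactosidase reporter signal from transgenic T. cruzi replicating inside host cells; inhibitors lower the luminescence signal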
[25] = luciferase reporter signal suppression in cells – H4 neuroglioma cells, luminescence, dose response (AID 1990); assay type: functional, cell-based
[26] = biological target: T7, Rac GTPase-activating protein 1 (Homo sapiens, UniProt Q9H0H5); test: blockers of MgcRacGAP-driven Rac1 GTP hydrolysis – biochemical, ADP Hunter fluorescence, primary and confirmatory, confirmation (AID 624330); assay type: functional
T7 sequence (Q9H0H5 whole entry): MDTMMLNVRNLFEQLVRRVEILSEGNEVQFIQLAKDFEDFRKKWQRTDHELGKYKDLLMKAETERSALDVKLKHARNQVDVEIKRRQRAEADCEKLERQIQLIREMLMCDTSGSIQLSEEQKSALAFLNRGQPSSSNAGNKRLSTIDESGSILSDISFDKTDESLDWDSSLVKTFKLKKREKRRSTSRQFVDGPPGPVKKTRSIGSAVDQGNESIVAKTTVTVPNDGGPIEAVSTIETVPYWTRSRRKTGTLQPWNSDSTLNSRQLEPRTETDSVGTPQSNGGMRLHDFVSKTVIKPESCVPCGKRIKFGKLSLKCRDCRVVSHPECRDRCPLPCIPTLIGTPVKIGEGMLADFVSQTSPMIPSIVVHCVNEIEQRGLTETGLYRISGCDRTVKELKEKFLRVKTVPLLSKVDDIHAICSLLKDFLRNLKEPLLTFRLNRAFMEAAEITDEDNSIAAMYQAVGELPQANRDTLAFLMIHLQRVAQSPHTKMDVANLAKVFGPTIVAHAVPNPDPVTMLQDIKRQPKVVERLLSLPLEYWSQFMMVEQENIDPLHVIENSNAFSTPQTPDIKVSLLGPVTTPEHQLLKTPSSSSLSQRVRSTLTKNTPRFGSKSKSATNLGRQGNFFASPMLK

[27] = test system: INS1; test: INS-1E survival protection against cytokine death – cell-based, luminescence, retest, dose response (AID 449756); assay type: functional; conditions: Rattus norvegicus;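 further: cell death triggered by IL-1 beta plus TNF-alpha plus IFN-gamma mixture; protective hits raise ATP signal compared with cytokine alone wells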
[28] = microbe, parasite or virus in culture; assay type: functional; conditions: Mycobacterium tuberculosis
[29] = alpha-synuclein stem-loop luciferase translation blockers – H4 neuroglioma cells, luminescence, confirmation (AID 1988); assay type: functional, cell-based
[30] = blockers of bursicon-stimulated LGR2 cAMP reporter – cell-based, HEK293, CRE-luciferase reporter, cherry pick, set 2, dose response (AID 743343); assay type: functional;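 further: transfected cells were stimulated with diluted bursicon conditioned medium after compound addition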
[31] = biological target: T3, Small ubiquitin-related modifier 1; test: SUMO1 protein-protein binding blockers, potency – biochemical, FRET, dose response (AID 624383); assay type: functional; conditions: read-out: IC50_Mean
[32] = biological target: Phosphomannomutase 2 (Homo sapiens, UniProt O15305); test: Counter screen SAR assay for PMM2 inhibitors via a fluorescence intensity assay. [Related pubchem assays (depositor defined):AID1545, AID1574]
Chain of Phosphomannomutase 2 (O15305 whole entry): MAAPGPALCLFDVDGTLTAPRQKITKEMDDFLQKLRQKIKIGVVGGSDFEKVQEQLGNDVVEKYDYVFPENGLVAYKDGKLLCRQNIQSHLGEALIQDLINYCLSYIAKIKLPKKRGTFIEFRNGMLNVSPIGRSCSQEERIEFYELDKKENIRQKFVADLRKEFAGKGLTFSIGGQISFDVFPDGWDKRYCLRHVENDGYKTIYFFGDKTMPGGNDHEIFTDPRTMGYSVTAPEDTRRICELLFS

[33] = biological target: T8, Mannose-6-phosphate isomerase (Homo sapiens, UniProt P34949); test: phosphomannose isomerase inhibition – biochemical, fluorescence intensity, confirmation (AID 1535)
T8 sequence (P34949 whole entry): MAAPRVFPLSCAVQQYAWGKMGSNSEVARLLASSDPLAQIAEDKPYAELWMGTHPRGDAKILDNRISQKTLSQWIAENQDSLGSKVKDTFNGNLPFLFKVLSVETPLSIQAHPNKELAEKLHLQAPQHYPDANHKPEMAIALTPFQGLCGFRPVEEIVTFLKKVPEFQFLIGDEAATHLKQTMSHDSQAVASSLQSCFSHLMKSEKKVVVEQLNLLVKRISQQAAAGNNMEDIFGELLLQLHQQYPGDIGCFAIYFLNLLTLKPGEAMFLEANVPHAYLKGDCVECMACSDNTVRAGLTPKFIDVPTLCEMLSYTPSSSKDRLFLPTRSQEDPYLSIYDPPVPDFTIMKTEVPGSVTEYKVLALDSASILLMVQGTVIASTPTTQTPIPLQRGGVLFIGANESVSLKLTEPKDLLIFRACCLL

COc1ccc(C)cc1NC(=O)c1ccc(CN2CCN(c3ccccc3)CC2)cc1
EC50 [1]: 76.1 µM (inactive)
EC50 [2]: 92.5 µM (inactive)
IC50 [3]: > 100 µM (inactive)
CC50 [4]: 21.4 µM (active)
IC50 [5]: > 100 µM (inactive)

COc1ccc(NC(=O)CN2C(=O)S/C(=C/c3cccn3-c3ccc(C(=O)O)cc3)C2=O)cc1
IC50 [6]: 10.5 µM (active)
IC50 [7]: 5.52 µM (active)

Oc1[nH]nc(-c2ccccc2)c1/C=N/c1ccc(Cl)cc1
EC50 [8]: 2.11 µM (active)

COc1ccc(/C=N/Nc2cc(C)nc3ccc(OC)cc23)c(OC)c1
AC50 [9]: 38.7 µM (active)
IC50 [10]: > 66.6 µM (inactive)
AC50 [11]: 4.32 µM (active)
IC50 [12]: 11.4 µM (active)
IC50 [13]: 9.1 µM (active)
EC50 [14]: 8.29 µM (active)
EC50 [15]: > 100 µM (inactive)
IC50 [16]: 28.1 µM (inactive)
AC50 [17]: 9.83 µM (active)
CC50 [18]: 17.9 µM (active)
EC50 [19]: 7.61 µM (active)
IC50 [20]: 6.39 µM (active)
AC50 [21]: 3.97 µM (active)
AC50 [22]: 3.43 µM (active)
AC50 [23]: 10.8 µM (active)
EC50 [24]: 0.72 µM (active)
EC50 [25]: 8.87 µM (active)
IC50 [26]: 36.4 µM (active)
AC50 [27]: 7.95 µM (active)
CC50 [28]: 1.77 µM (active)
EC50 [29]: 8.01 µM (active)
AC50 [30]: 8.34 µM (active)
IC50 [31]: 9.36 µM (active)

FC(F)(F)c1ccc(/N=c2\ssnc2Cl)cc1
IC50 [32]: > 100 µM (inactive)
IC50 [33]: 32.7 µM (active)

Sc1nnc(-c2cccc(Cl)c2)n1/N=C/c1ccc(-c2ccccc2Br)o1
IC50 [6]: 28 µM (active)
CC50 [4]: > 50 µM (active)
IC50 [7]: 12.6 µM (active)

CCOC(=O)C1CCCN(Cc2ccc(OCC)cc2)C1 (centres undefined)
IC50 [3]: > 100 µM (inactive)
IC50 [5]: > 100 µM (inactive)

c1ccc(-c2nc(N3CCNCC3)nc3ccccc23)cc1
EC50 [8]: 0.3 µM (active)
